Here are results for one compound from US20050118262A1, “Controlled release formulation” (priority 2003, published 2005).

Structures are written as SMILES.

A short description of the data set: Water solubility of selodenoson. The data set is classed as physicochemical.

For the compound `CCNC(=O)[C@H]1O[C@@H](n2cnc3c(NC4CCCC4)ncnc32)[C@H](O)[C@@H]1O` [selodenoson, N^6-cyclopentyl-5′-(N-ethyl)carboxamidoadenosine], the solubility in water entry (water) is recorded as “soluble in water”. In addition, the “solubility in water under acidic conditions” value (water under acidic conditions) was “highly soluble in water under acidic conditions”.
